In one data set the target is T1, CYP3A4 (Homo sapiens, UniProt P08684).
T1 construct: tissue BD-Gentest 452117; host or cells: human liver microsomes
The data set can be described thus: CYP inhibition assay in human liver microsome, CYP3A4. The data set is classed as in vitro ADME. The following applies: human, human liver microsomes, probe midazolam 5 μM, substrate midazolam 5 μM, third value of 2C9/2D6/3A4. The essentials:
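Pooled human liver microsomes with a substrate for each CYP were incubated with compound at 37 °C after NADPH addition, for 5 min (CYP2D6: 10 min), then quenched with acetonitrile containing labelled metabolite standards. Metabolite/internal-standard peak area ratios were measured by RapidFire MS/MS. % inhibition was scaled between DMSO and standard-inhibitor controls.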
(In general: Liver microsomes are a subcellular fraction often used to study metabolism.)

Another data set deals with T2, CYP2D6 (Homo sapiens, UniProt P10635).
T2 construct: tissue BD-Gentest 452117; host or cells: human liver microsomes
T2 sequence (P10635 whole entry): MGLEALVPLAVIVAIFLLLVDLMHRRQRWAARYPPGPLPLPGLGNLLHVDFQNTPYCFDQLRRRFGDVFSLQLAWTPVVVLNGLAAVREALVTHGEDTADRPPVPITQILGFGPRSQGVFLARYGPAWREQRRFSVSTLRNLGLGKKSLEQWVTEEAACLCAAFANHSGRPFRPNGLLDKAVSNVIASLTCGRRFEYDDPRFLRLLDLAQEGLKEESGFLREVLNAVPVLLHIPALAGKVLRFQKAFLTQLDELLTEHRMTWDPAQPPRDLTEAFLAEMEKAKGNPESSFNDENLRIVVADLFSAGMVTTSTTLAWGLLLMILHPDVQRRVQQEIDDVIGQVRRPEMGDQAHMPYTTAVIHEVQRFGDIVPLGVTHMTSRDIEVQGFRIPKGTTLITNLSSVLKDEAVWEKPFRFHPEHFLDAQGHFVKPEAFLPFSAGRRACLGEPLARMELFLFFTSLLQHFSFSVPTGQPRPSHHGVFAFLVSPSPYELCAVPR
The data set can be described thus: CYP inhibition assay in human liver microsome, CYP2D6. Type of data set: in vitro ADME. To be noted: human, human liver microsomes, probe dextromethorphan 5 μM, substrate dextromethorphan 5 μM, second value of 2C9/2D6/3A4. As for the experimental part:
This is a high throughput screening assay used for assessment of reversible inhibition of CYP2C9, CYP2D6, and CYP3A4 activity of test compounds in human liver microsome (HLM) in early discovery stage.
10 mM DMSO stock solutions of test compounds were diluted in DMSO to generate 2 mM intermediate stock solution. 250 nL, of intermediate stock solution were transferred in duplicate into 3 separate 384 well microtitre plates (assay-ready plates). A mixture of HLM and each substrate was made up. 45 μL of HLM substrate mix was then transferred to each well of an assay ready plate and mixed. The negative (solvent) and positive controls (standard inhibitor for each CYP) were included in each assay ready plate. The assay ready plate was warmed to 37° C. in an incubator over 10 minutes. 5 μL pre-warmed NADPH regenerating system was added to each incubation well to start the reaction. Final incubation volume was 50 μL. The assay plate then was placed back in the 37° C. incubator. After incubation (10 minutes for CYP2D6) for 5 minutes, incubates were quenched by addition of 50 μL 100% acetonitrile containing internal standards (400 ng/mL 13C6-4′-OH-Diclofenac, 20 ng/mL D3-Dextrorphan and 20 ng/mL D4-1′OH-Midazolam). The supernatants were collected for RapidFire/MS/MS analysis.
RapidFire online solid phase extraction/sample injection system (Agilent) coupled with API4000 triple quadrupole mass spectrometer (AB Sciex) were used for sample analysis. The mobile phase composed of acetonitrile and water supplemented with 0.1% formic acid. A C4 solid phase extraction cartridge is used for sample separation. MS detection is achieved in positive ion MRM mode.
Peak areas for substrate, metabolite and internal standard are determined using the RapidFire integrator software (version 3.6.12009.12296). Peak area ratios (PAR) of metabolite and internal standard (stable-labelled metabolite) are then calculated. The measurement window for each experiment is then defined:
PAR (0% activity)=average PAR for all incubations containing concentrated inhibitor; Par (100% activity)=average PAR for all incubations containing no inhibitor (DMSO controls); % Activity (test inhibitor)=[PAR (test inhibitor)−PAR (0% activity)]/[PAR (100% activity)−PAR (0% activity)]; % Inhibition (test inhibitor)=100-% Activity (test inhibitor).

Another data set addresses T3, human TLR7 (Homo sapiens, UniProt Q9NYK1).
T3 construct: host or cells: HEK293 (HEK-Blue hTLR7)
T3 sequence (Q9NYK1 27-1049): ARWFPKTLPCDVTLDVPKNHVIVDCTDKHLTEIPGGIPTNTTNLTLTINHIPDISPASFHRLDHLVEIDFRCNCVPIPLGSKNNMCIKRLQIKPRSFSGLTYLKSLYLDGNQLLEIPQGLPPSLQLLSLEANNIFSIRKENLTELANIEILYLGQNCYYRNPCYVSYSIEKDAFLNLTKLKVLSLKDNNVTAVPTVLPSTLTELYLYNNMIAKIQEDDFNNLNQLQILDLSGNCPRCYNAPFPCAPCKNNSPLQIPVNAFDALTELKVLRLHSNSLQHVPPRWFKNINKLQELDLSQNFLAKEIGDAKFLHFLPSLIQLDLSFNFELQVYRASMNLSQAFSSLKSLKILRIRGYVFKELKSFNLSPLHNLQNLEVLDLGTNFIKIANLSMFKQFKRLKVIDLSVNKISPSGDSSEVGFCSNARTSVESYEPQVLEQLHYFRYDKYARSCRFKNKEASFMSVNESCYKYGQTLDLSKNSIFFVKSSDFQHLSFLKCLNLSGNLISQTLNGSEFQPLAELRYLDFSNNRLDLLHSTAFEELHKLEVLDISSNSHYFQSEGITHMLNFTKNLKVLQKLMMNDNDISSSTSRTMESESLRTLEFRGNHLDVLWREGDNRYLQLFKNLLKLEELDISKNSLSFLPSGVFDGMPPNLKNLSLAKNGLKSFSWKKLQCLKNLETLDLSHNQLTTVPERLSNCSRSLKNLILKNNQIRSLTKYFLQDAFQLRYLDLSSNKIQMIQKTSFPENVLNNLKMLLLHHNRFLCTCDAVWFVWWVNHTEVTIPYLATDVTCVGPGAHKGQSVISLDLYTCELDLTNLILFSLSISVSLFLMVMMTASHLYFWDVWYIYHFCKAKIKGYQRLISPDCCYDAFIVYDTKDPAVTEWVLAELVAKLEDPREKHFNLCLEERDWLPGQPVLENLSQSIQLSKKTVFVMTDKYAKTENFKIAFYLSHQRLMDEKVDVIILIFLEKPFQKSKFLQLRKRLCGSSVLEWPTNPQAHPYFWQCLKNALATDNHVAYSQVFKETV
The data set can be described thus: HEK293-Blue-hTLR-7 cells assay (SEAP reporter, R848 stimulation). Type of data set: cell-based. The following applies: HEK293-Blue-hTLR7 cells, R848, 20 hrs; read-out: HEK/hTLR7 IC50. The essentials:
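HEK293-Blue-hTLR7 cells (NF-κB/AP-1-driven SEAP reporter) were stimulated with R848 alongside serially diluted compound at 1% final DMSO for 20 h at 37 °C. Supernatant SEAP was then developed with QUANTI-Blue for 2 h at 37 °C and absorbance read at 620–655 nm; antagonism is measured as reduced reporter signal.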

The results in this text go back to patent US20210395239A1 (Hoffmann-La Roche Inc., priority 2018, published 2021).

T1 sequence (P08684 whole entry): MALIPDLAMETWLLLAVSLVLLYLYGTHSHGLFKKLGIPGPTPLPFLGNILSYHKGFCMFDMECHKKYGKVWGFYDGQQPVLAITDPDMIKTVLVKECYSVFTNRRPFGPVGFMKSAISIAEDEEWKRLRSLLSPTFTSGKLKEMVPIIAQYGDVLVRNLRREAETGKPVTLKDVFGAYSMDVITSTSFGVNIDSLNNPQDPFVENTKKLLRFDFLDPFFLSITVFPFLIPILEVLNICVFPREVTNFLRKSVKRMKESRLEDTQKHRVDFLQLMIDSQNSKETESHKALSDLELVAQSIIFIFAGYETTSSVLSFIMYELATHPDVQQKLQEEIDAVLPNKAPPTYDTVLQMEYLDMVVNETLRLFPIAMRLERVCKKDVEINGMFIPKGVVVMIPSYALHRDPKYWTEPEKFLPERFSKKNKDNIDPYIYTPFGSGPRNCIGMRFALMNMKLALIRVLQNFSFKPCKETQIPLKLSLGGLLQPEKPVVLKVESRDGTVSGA

What is called inhibition is the change of the read-out against control, counted positive when it falls. In the case of `C[C@@H]1CN(c2ccc(C#N)c3ncccc23)C[C@H](CN2CC(c3ccc(N4CCNCC4)cc3)C2)O1` [Example 3, 5-[(2R,6S)-2-methyl-6-[[3-(4-piperazin-1-ylphenyl)azetidin-1-yl]methyl]morpholin-4-yl]quinoline-8-carbonitrile], the inhibition at 5 min, 10 µM on CYP3A4 stood at 4.5%. In addition, the inhibition at 10 min, 10 µM against CYP2D6 is 13.5%. Besides, the IC50 at human TLR7 is 11 nM.
The matching figures for `[2H]c1ccc2c(N3C[C@H](CN4CCN(c5ccc(N[C@H]6CNC[C@H]6F)nc5)CC4)O[C@H](C)C3)ccc(C#N)c2n1` [Example 162, 2-deuterio-5-[(2S,6R)-2-[[4-[6-[[(3S,4R)-4-fluoropyrrolidin-3-yl]amino]-3-pyridyl]piperazin-1-yl]methyl]-6-methyl-morpholin-4-yl]quinoline-8-carbonitrile]: 42.5%, 1% and 11 nM.
The matching figures for `CO[C@H]1CN(c2nc(C)cc(N3CCN(C[C@H]4CN(c5ccc(C#N)c6nccnc56)C[C@@H](C)O4)CC3)n2)C[C@@H]1N` [Example 106, 8-[(2S,6R)-2-[[4-[2-[(3S,4S)-3-amino-4-methoxy-pyrrolidin-1-yl]-6-methyl-pyrimidin-4-yl]piperazin-1-yl]methyl]-6-methyl-morpholin-4-yl]quinoxaline-5-carbonitrile]: 20.5%, 3% and 9 nM.
Regarding `[2H]c1ccc2c(N3C[C@H](CN4CCN(c5ccc(N6CC(C)(N)C6)nc5)CC4)O[C@H](C)C3)ccc(C#N)c2n1` [Example 132, 5-[(2S,6R)-2-[[4-[6-(3-amino-3-methyl-azetidin-1-yl)-3-pyridyl]piperazin-1-yl]methyl]-6-methyl-morpholin-4-yl]-2-deuterio-quinoline-8-carbonitrile], at CYP3A4, the inhibition at 5 min, 10 µM amounted to 7.5%. The inhibition at 10 min, 10 µM on CYP2D6 was -2.5%. The IC50 on human TLR7 was found to be 23 nM.
The matching figures for `C[C@@H]1CN(c2ccc(C#N)n3ncc(F)c23)C[C@H](CN2CCN(c3ccc(N4CC(C)(N)C4)nc3)CC2)O1` [Example 154, 4-[(2S,6R)-2-[[4-[6-(3-amino-3-methyl-azetidin-1-yl)-3-pyridyl]piperazin-1-yl]methyl]-6-methyl-morpholin-4-yl]-3-fluoro-pyrazolo[1,5-a]pyridine-7-carbonitrile]: 10.5%, -10.5% and 32 nM.
Regarding `C[C@@H]1CN(c2ccc(C#N)c3nccnc23)C[C@H](CN2CCN(c3nccc(N4C[C@@H](N)[C@H](F)C4)n3)CC2)O1` [Example 119, 8-[(2S,6R)-2-[[4-[4-[(3R,4R)-3-amino-4-fluoro-pyrrolidin-1-yl]pyrimidin-2-yl]piperazin-1-yl]methyl]-6-methyl-morpholin-4-yl]quinoxaline-5-carbonitrile], at CYP3A4, the inhibition at 5 min, 10 µM was determined as 23.5%. Also, the inhibition at 10 min, 10 µM at CYP2D6 is -8.5%. Moreover, the IC50 at human TLR7 was 16 nM.
The like results for `C[C@@H]1CN(c2ccc(C#N)c3ncccc23)C[C@H](CN2CCC(c3cccc(N4CCNCC4)c3)C2)O1` (stereo partly drawn) [Example 1, 5-[(2R,6S)-2-methyl-6-[[3-(3-piperazin-1-ylphenyl)pyrrolidin-1-yl]methyl]morpholin-4-yl]quinoline-8-carbonitrile] were, in that order, 14%, 5% and 84 nM.
The matching figures for `C[C@@H]1CN(c2ccc(C#N)c3nccnc23)C[C@H](CN2CCN(c3ccnc(N4C[C@H](N)[C@@H](F)C4)n3)CC2)O1` [Example 107, 8-[(2S,6R)-2-[[4-[2-[(3S,4S)-3-amino-4-fluoro-pyrrolidin-1-yl]pyrimidin-4-yl]piperazin-1-yl]methyl]-6-methyl-morpholin-4-yl]quinoxaline-5-carbonitrile]: 34.5%, 16% and 8 nM.
